The text below walks through data of patent US20150376654A1 (priority 2011, published 2015).

Assay [1] concerns Clostridium autoethanogenum DSM10061. On the procedure: (§1) The ethanol tolerance of three acetogenic strains Clostridium ljungdahlii DSM13583, Clostridium autoethanogenum DSM10061, and C. autoethanogenum DSM23693 was tested in serum bottles.
(§2) Ethanol was added in various concentrations to an active growing culture at 37° C. in PETC medium (Table 1) with 30 psi steel mill gas as substrate. The media was prepared by using standard anaerobic techniques (Hungate R E. A roll tube method for cultivation of strict anaerobes, In Norris J R and Ribbons D W (eds.), Methods in Microbiology, vol. 3B. Academic Press, N Y, 1969: 117-132; Breznak J A and Costilow R N, Physicochemical factors in growth, In Gerhardt P (ed.), Methods for general and molecular bacteriology. American Society for Microbiology, Washington, 1994: 137-154). […] Slightly acidified water was used (0.005 M H2SO4) as mobile phase with a flow rate of 0.7 ml/min. To remove proteins and other cell residues, 400 μl samples were mixed with 100 μl of a 2% (w/v) 5-Sulfosalicylic acid and centrifuged at 14,000×g for 3 min to separate precipitated residues. 10 μl of the supernatant were then injected into the HPLC for analyses.

In assay [2] the test system is Clostridium autoethanogenum DSM23693. As for the experimental part: as §1, §2
Assay [3] concerns Clostridium ljungdahlii DSM13583. Particulars: 50 g/L ethanol, serum bottle studies. On the procedure:
as §1, §2

Assay [4] relates to C. autoethanogenum DSM23693 transformed strain carrying plasmid pMTL85246-GroESL. Particulars: PETC media, 30 psi steel mill gas, biomass at 600 nm. On the procedure:
(§3) To investigate whether overexpression of GroESL enhances ethanol tolerance of C. autoethanogenum DSM23693, both wild-type (WT), i.e. parental microorganism and transformed strain carrying plasmid pMTL85246-GroESL were challenged with different concentrations of ethanol (FIG. 8).
(§4) Growth experiments in triplicates were carried out in 50 ml PETC media (Table 1) in serum bottles sealed with rubber stoppers and 30 psi steel mill gas (collected from New Zealand Steel site in Glenbrook, NZ; composition: 44% CO, 32% N2, 22% CO2, 2% H2) in the headspace as sole energy and carbon source. […] All cultures were inoculated to the same optical density using the same pre-culture for either wild-type (parental) or transformed strain. Changes in biomass were measured spectrophotometrically at 600 nm until growth ceased. The maximum biomass of each culture was compared with the unchallenged culture.

Assay [5] has as its system C. autoethanogenum DSM23693 wild-type (WT), parental. The following applies: PETC media, 30 psi steel mill gas. As for the experimental part:
as §3, §4

The test system of assay [6] is C. autoethanogenum DSM10061 chaperone over-expressing (pMTL83156-groESL) transformants. The following applies: for OD600 reached: 37 h post inoculation, MMYF medium. As for the experimental part: (§5) The experiment was first conducted as described above using PETC medium and autotrophic conditions with CO as substrate (FIG. 16a) and afterwards repeated using a different growth medium and heterotrophic conditions with fructose as substrate to rule out the effect of the growth media and substrate (FIG. 16b). A plasmid control was included. […] For ethanol challenge assay, 500 μL of two day old cultures were inoculated into each of five 60 mL serum bottles containing 20 mL of selective MMYF medium and incubated at 37° C. without agitation. […] Static incubation at 37° C. was allowed for 80-100 hours and the growth was monitored by measuring the optical density at a wavelength of 600 nm using Jenway 7300 spectrophotometer. Microscope examinations were routinely carried out.
(§6) The experiment was first conducted as described above using PETC medium and autotrophic conditions with CO as substrate (FIG. 16a) and afterwards repeated using a different growth medium and heterotrophic conditions with fructose as substrate to rule out the effect of the growth media and substrate (FIG. 16b). A plasmid control was included. Both plasmid control (pMTL83157) transformants and chaperone over-expressing (pMTL83156-groESL) transformants were cultured anaerobically in MMYF medium supplemented with freshly prepared 7.5 μg/mL thiamphenicol (final concentration). For ethanol challenge assay, 500 μL of two day old cultures were inoculated into each of five 60 mL serum bottles containing 20 mL of selective MMYF medium and incubated at 37° C. without agitation. […] Static incubation at 37° C. was allowed for 80-100 hours and the growth was monitored by measuring the optical density at a wavelength of 600 nm using Jenway 7300 spectrophotometer. Microscope examinations were routinely carried out.

Assay [7] concerns C. autoethanogenum DSM10061 plasmid control (pMTL83157) transformants. Nature of the assay: microbe, parasite or virus in culture. On the procedure:
(§7) Anaerobic ethanol was administered at 12 hour post inoculation.
as §5, §6

Assay [8] deals with C. autoethanogenum DSM10061 pMTL83156-grpE-dnaK-dnaJ transformant. Particulars: 5 g/L, 10 g/L and 25 g/L ethanol, up to 102 h post inoculation. As for the experimental part: as §7, §5
The experiment was first conducted as described above using PETC medium and autotrophic conditions with CO as substrate (FIG. 16a) and afterwards repeated using a different growth medium and heterotrophic conditions with fructose as substrate to rule out the effect of the growth media and substrate (FIG. 16b). A plasmid control was included. […] Static incubation at 37° C. was allowed for 80-100 hours and the growth was monitored by measuring the optical density at a wavelength of 600 nm using Jenway 7300 spectrophotometer. […]

Assay [9] has as its system Clostridium ljungdahlii pMTL83155-groESL (phosphotransacetylase promoter). Particulars: construct with the phosphotransacetylase/acetate kinase operon promoter. As for the experimental part:
In addition, the effect of different promoter sequences was evaluated. The two strong C. autoethanogenum promoters of pyruvate:ferredoxin oxidoreductase and phosphotransacetylase/acetate kinase operon were used.

Assay [10] concerns Clostridium ljungdahlii DSM13583 pMTL83157 plasmid control.
The subject of assay [11] is Clostridium ljungdahlii DSM13583 pMTL83156-groESL transformants.
Assay [12] relates to Clostridium ljungdahlii DSM13583 pMTL83156-grpE-dnaK-dnaJ transformants.
Assay [13] relates to Zymomonas mobilis or Lactococcus strains. The following applies: cited from earlier work.
The test system of assay [14] is majority of bacteria. Particulars: cited from earlier work.
Assay [15] deals with Two species of the genus Clostridium. Particulars: cited from earlier work.
Assay [16] relates to Clostridium acetobutylicum overproducing GroESL. Particulars: overproduction of GroESL; cited from earlier work.
[17] abbreviates: 50 g/L ethanol, serum bottle studies.
Where [18] appears, read: Clostridium autoethanogenum, DSM10061, read-out: OD600 inhibition (% reduction in OD600 relative to unchallenged culture).
The mark [19] stands for this setting: 5 g/L ethanol added after 12 hours, 66 hours.

Read-outs that look alike come from different tables or passages of the source.

Consider `CCO` [ethanol], for which the “growth in presence of ethanol” value in assay [1] (25 g/L ethanol) is given as “unable to grow”; in [1] (setting [17]), “none of the strains was able to grow”; in assay [2] (setting [17]), “none of the strains was able to grow”; in assay [3], “none of the strains was able to grow”; in assay [6] (25 g/L ethanol), “able to grow”; in assay [6] (50 g/L ethanol) it was “able to grow”. In assay [2] (25 g/L ethanol), the “natural tolerance to ethanol” value is given as “tolerant”. The “ethanol concentration at which growth was inhibited” value in [2] (serum bottles, PETC medium, 37° C., 30 psi steel mill gas) is 10-20 g/l. For the same compound, the figures for the “doublings of culture when challenged with ethanol” value in assay [4] (45 g/l ethanol) and in assay [4] (60 g/l ethanol) were 2.14 times and 1.27 times, respectively. Besides, the “doubling of culture when challenged with ethanol” value in assay [5] (45 g/l ethanol, biomass at 600 nm) was 0.39 doubling. Moreover, the “biomass change when ethanol was added” value in [5] (60 g/l ethanol) is reported as “biomass even dropped”. Also, the “growth after addition of ethanol” value in assay [5] (60 g/l ethanol) is recorded as “ceased”. The OD600 reached was 0.38 in assay [6] (5 g/L ethanol added 12 hour post inoculation); 0.31 in [6] (25 g/L ethanol added 12 hour post inoculation); 0.29 in assay [7] (25 g/L ethanol added 12 hour post inoculation, 78 h post inoculation, MMYF medium). In addition, the “growth relative to plasmid control” value in assay [6] (5 g/L, 10 g/L and 25 g/L ethanol at 12 hour post inoculation) is reported as “significantly earlier growth”. Further, the “biomass relative to plasmid control” value in [6] (all levels of ethanol challenge) is reported as “higher biomass”. The “time to exceed OD600 0.25” value in [7] (5 g/L ethanol added 12 hour post inoculation, MMYF medium) is on record as “more than 102 h”. Further, in assay [7] (setting [18]), the inhibition at 10000 µg/mL is 74%. Further, the inhibition at 25000 µg/mL in [7] (setting [18]) was 79%. The “growth inhibition by ethanol challenge relative to plasmid control” value in [8] is reported as “significantly less inhibited”. Further, the “ethanol tolerance over the wild-type” value in assay [9] is reported as “didn't enhance ethanol tolerance”; in assay [11], “significantly enhanced”. For the same compound, the “change in OD600” value in [10] and in assay [11] was “reduction in OD600” throughout. Besides, the OD600 in assay [10] (setting [19]) is given as around 0.66; in [10] (10 g/L ethanol added after 12 hours, 101 h post inoculation), 0.67; in [10] (25 g/L ethanol added after 12 hours, 30 h post inoculation), 0.20; in assay [11] (setting [19]) it was 0.97; in assay [11] (25 g/L ethanol added after 12 hours, 36 h post inoculation) it was 0.42; in assay [12] (setting [19]), 1.12. The OD600 worked out at 1.15 in assay [12] (10 g/L ethanol added after 12 hours, 114 h post inoculation) and 0.48 in assay [12] (25 g/L ethanol added after 12 hours, 36 hrs. post inoculation). Also, the “time to reach OD600 of ~0.6 relative to plasmid control” value in assay [11] and in assay [12] was “significantly earlier” throughout. Also, the “OD600 relative to plasmid controls” value in assay [12] is on record as “higher OD600 than plasmid controls”. For the same compound, in [12] (50 g/L ethanol challenge at 12 hour post inoculation), the “increase in OD600” value is on record as 0.096. Besides, the tolerated ethanol result in assay [13] was “more than 10%”. For the same compound, in assay [14], the maximum tolerated ethanol is reported as 4-7%.
On to butanol, for which, in assay [15], the tolerated butanol level entry is given as “around 1.5%”. Moreover, the “tolerated butanol level (hardly exceeded)” value in assay [14] was 1.5-2.5%. The “reduction of inhibition by butanol challenge compared to the wild-type” value in [16] was “up to 85%”.

The term inhibition denotes the percentage by which the read-out fell short of the control.
